≈ marks a conversion by molar mass, not a printed value. Like-named read-outs stand apart in the source and are kept apart here. Starred links: 1 amine or outer side, 2 acyl side, 3 side chain; linkers in the order of their positions; H or OH if unused. Non-standard residues stand in square brackets, D forms with d. Residues, ends and D or L forms follow the SMILES beside them. Groups on a side chain read outwards from the residue. X11 = COC(=O)[C@H](Cc1c[nH]cn1)NC(=O)[C@@H](C)C[C@@H](C(=O)[*:2])N(C)[*:1]; X13 = C[C@@H](C[C@@H](C(=O)[*:2])N(C)[*:1])C(=O)NCc1ccc(C(F)(F)F)cc1; X4 = COC(=O)[C@H](CCSC)NC(=O)[C@@H](C)C[C@@H](C(=O)[*:2])N(C)[*:1]; Trp(1-(1,1-Me2-allyl)) = C=CC(C)(C)n1cc(C[C@H](N)C(=O)O)c2ccccc21; X5 = O=C(Oc1ccc(C[C@H](N[*:1])C(=O)[*:2])cc1[N+](=O)[O-])c1cnccn1; NMeGlu(4S-Me) = C[C@@H](C[C@@H](C(=O)[*:2])N(C)[*:1])C(=O)[*:3]; X6 = C[C@@H](C[C@@H](C(=O)[*:2])N(C)[*:1])C(=O)NNC(=O)c1ccncc1; X1 = C[C@@H](C[C@@H](C(=O)[*:2])N(C)[*:1])C(=O)NCc1ccc(F)cc1; Tyr(3-NO2) = N[C@@H](Cc1ccc(O)c([N+](=O)[O-])c1)C(=O)O; Gly(E-crotyl) = C/C=C/C[C@H](N)C(=O)O; NMeL = CN[C@@H](CC(C)C)C(=O)O
Key:
HCT116 = assay: cells; assay type: cell-based; settings: Homo sapiens, HCT-116; colon cancer cell line
MCF-7 = assay: cells; assay type: cell-based; settings: Homo sapiens, MCF7; breast adenocarcinoma cell line
M. tuberculosis H37Rv = assay: Antitubercular activity assay, broth dilution, auto-luminescent strain; assay type: cell-based, Mycobacterium tuberculosis
L02 = assay: cells; assay type: cell-based; settings: normal human hepatic cell line
HeLa = assay: cells; assay type: cell-based; settings: Homo sapiens, cervical carcinoma cell line
A549 = assay: Cytotoxicity assay (CCK-8); assay type: cell-based; settings: Homo sapiens, lung cancer cell line
HepG2 = assay: cells; assay type: cell-based; settings: Homo sapiens, hepatocellular carcinoma cell line
Huvec-12 = assay: Cytotoxicity assay (CCK-8); assay type: cell-based; settings: normal human umbilical vein endothelial cell line
[1] = Mycobacterium tuberculosis, H37RV, Day 3rd, read-out: MICs against H37Rv, Day 3rd
[2] = Mycobacterium tuberculosis, H37RV, Day 7th, read-out: MICs against H37Rv, Day 7th
[3] = Mycobacterium tuberculosis, H37RV, Day 14th, read-out: MICs against H37Rv, Day 14th
[4] = Mycobacterium tuberculosis, H37RV, read-out: MICs against H37Rv, Day 3rd
[5] = Mycobacterium tuberculosis, H37RV, read-out: MICs against H37Rv, Day 7th
[6] = Mycobacterium tuberculosis, H37RV, read-out: MICs against H37Rv, Day 14th

Structure (SMILES)	IC50 (HCT116) [µM]	IC50 (MCF-7) [µM]	MIC (M. tuberculosis H37Rv; [1]) [µM]	MIC (M. tuberculosis H37Rv; [2]) [µM]	MIC (M. tuberculosis H37Rv; [3]) [µM]	IC50 (L02) [µM]	IC50 (HeLa) [µM]	IC50 (A549) [µM]	IC50 (HepG2) [µM]	IC50 (Huvec-12) [µM]	MIC (M. tuberculosis H37Rv; [4]) [µM]	MIC (M. tuberculosis H37Rv; [5]) [µM]	MIC (M. tuberculosis H37Rv; [6]) [µM]	increase of anti-TB activity compared with ilamycin F (M. tuberculosis H37Rv; Day 3rd)	MIC (M. tuberculosis H37Rv; Day 3rd, read-out: MICs against H37Rv, Day 3rd) [µM]	more potent MIC value than that of 9 and 11 (M. tuberculosis H37Rv; Day 14th) [fold]	MIC (M. tuberculosis H37Rv; Day 14th, read-out: MICs against H37Rv, Day 14th) [µM]
C=CC(C)(C)n1cc(C[C@@H]2NC(=O)[C@H](C/C=C/C)NC(=O)[C@H](CC(C)C)NC(=O)[C@H](C[C@H](C)C(=O)N[C@@H](Cc3c[nH]cn3)C(=O)OC)N(C)C(=O)[C@H](C)NC(=O)[C@H](Cc3ccc(O)c([N+](=O)[O-])c3)NC(=O)[C@H](CC(C)C)N(C)C2=O)c2ccccc21 [Compound 5, ilamycin NJL5] (cyclo(A[X11]L[Gly(E-crotyl)][Trp(1-(1,1-Me2-allyl))][NMeL][Tyr(3-NO2)]))	> 50	> 50	26.8 (≈ 32 µg/mL)	26.8 (≈ 32 µg/mL)	26.8 (≈ 32 µg/mL)	> 50	> 50	> 50	> 50	> 50							
C=CC(C)(C)n1cc(C[C@@H]2NC(=O)[C@H](C/C=C/C)NC(=O)[C@H](CC(C)C)NC(=O)[C@H](C[C@H](C)C(=O)N[C@@H](CCSC)C(=O)OC)N(C)C(=O)[C@H](C)NC(=O)[C@H](Cc3ccc(O)c([N+](=O)[O-])c3)NC(=O)[C@H](CC(C)C)N(C)C2=O)c2ccccc21 [Compound 2, ilamycin NJL2] (cyclo(A[X4]L[Gly(E-crotyl)][Trp(1-(1,1-Me2-allyl))][NMeL][Tyr(3-NO2)]))	> 50	> 50	6.7 (≈ 7.96 µg/mL)	6.7 (≈ 7.96 µg/mL)	3.4 (≈ 4.04 µg/mL)	> 50	> 50	> 50	> 50	> 50							
C=CC(C)(C)n1cc(C[C@@H]2NC(=O)[C@H](C/C=C/C)NC(=O)[C@H](CC(C)C)NC(=O)[C@H](C[C@H](C)C(=O)NNC(=O)c3ccncc3)N(C)C(=O)[C@H](C)NC(=O)[C@H](Cc3ccc(O)c([N+](=O)[O-])c3)NC(=O)[C@H](CC(C)C)N(C)C2=O)c2ccccc21 [Compound 13, ilamycin NJL13] (cyclo(A[X6]L[Gly(E-crotyl)][Trp(1-(1,1-Me2-allyl))][NMeL][Tyr(3-NO2)]))	> 50	> 50				> 50	> 50	> 50	> 50	> 50	27.6 (≈ 32.1 µg/mL)	27.6 (≈ 32.1 µg/mL)	27.6 (≈ 32.1 µg/mL)				
C=CC(C)(C)n1cc(C[C@@H]2NC(=O)[C@H](C/C=C/C)NC(=O)[C@H](CC(C)C)NC(=O)[C@H](C[C@H](C)C(=O)NCc3ccc(F)cc3)N(C)C(=O)[C@H](C)NC(=O)[C@H](Cc3ccc(O)c([N+](=O)[O-])c3)NC(=O)[C@H](CC(C)C)N(C)C2=O)c2ccccc21 [Compound 10, ilamycin NJL10] (cyclo(A[X1]L[Gly(E-crotyl)][Trp(1-(1,1-Me2-allyl))][NMeL][Tyr(3-NO2)]))	> 50	> 50	1.6 to 3.5 (≈ 1.84 to 4.02 µg/mL)	1.7 (≈ 1.95 µg/mL)	1.6 to 1.7 (≈ 1.84 to 1.95 µg/mL)	> 50	> 50	> 50	> 50	> 50				9–19 fold	1.7 (≈ 1.95 µg/mL)	2	1.7 (≈ 1.95 µg/mL)
C=CC(C)(C)n1cc(C[C@@H]2NC(=O)[C@H](C/C=C/C)NC(=O)[C@H](CC(C)C)NC(=O)[C@H](C[C@H](C)C(=O)NCc3ccc(C(F)(F)F)cc3)N(C)C(=O)[C@H](C)NC(=O)[C@H](Cc3ccc(O)c([N+](=O)[O-])c3)NC(=O)[C@H](CC(C)C)N(C)C2=O)c2ccccc21 [Compound 12, ilamycin NJL12] (cyclo(A[X13]L[Gly(E-crotyl)][Trp(1-(1,1-Me2-allyl))][NMeL][Tyr(3-NO2)]))	> 50	> 50				> 50	> 50	> 50	> 50	> 50	> 100	> 100	> 100				
C=CC(C)(C)n1cc(C[C@@H]2NC(=O)[C@H](C/C=C/C)NC(=O)[C@H](CC(C)C)NC(=O)[C@H](C[C@H](C)C(=O)O)N(C)C(=O)[C@H](C)NC(=O)[C@H](Cc3ccc(OC(=O)c4cnccn4)c([N+](=O)[O-])c3)NC(=O)[C@H](CC(C)C)N(C)C2=O)c2ccccc21 [Compound 15, ilamycin NJL15] (cyclo(A[NMeGlu(4S-Me)]L[Gly(E-crotyl)][Trp(1-(1,1-Me2-allyl))][NMeL][X5]))	> 50	> 50	27.9 (≈ 32 µg/mL)	27.9 (≈ 32 µg/mL)	27.9 (≈ 32 µg/mL)	> 50	> 50	> 50	> 50	> 50							
C=CC(C)(C)n1cc(C[C@@H]2NC(=O)[C@H](C/C=C/C)NC(=O)[C@H](CC(C)C)NC(=O)[C@H](C[C@H](C)C(=O)N[C@@H](CCCNC(=N)N)C(=O)OC)N(C)C(=O)[C@H](C)NC(=O)[C@H](Cc3ccc(O)c([N+](=O)[O-])c3)NC(=O)[C@H](CC(C)C)N(C)C2=O)c2ccccc21 [Compound 4, ilamycin NJL4] (cyclo(A[NMeGlu(4S-Me)]([Arg-OMe])L[Gly(E-crotyl)][Trp(1-(1,1-Me2-allyl))][NMeL][Tyr(3-NO2)]))	30.6	> 50	26.4 (≈ 32 µg/mL)	26.4 (≈ 32 µg/mL)	26.4 (≈ 32 µg/mL)	25.9	26	23	> 50	35.2							
